Measured values as given in ChEMBL document CHEMBL3045607, “Design and synthesis of novel N-substituted-3-chloro-2-azetidinone derivatives as potential anticonvulsant agents” (Med Chem Res, 2011).
The source made the active and inactive calls. The rule behind the calls is not given here.

Legend:
[1] = tested on: Mus musculus; assay: Anticonvulsant activity in ip dosed Mus musculus (mouse) assessed as protection against maximal electroshock-induced seizure after 4 hr; assay type: functional; conditions: read-out: MED
[2] = tested on: Mus musculus; assay: Anticonvulsant activity in Mus musculus (mouse) assessed as protection against subcutaneous pentylene tetrazole-induced seizure at 300 mg/kg, ip after 0.5 hr; assay type: functional, organism-based; set-up: dose 300 mg/kg
[3] = tested on: Mus musculus; assay: Neurotoxicity in Mus musculus (mouse) assessed as minimal motor impairment at 300 mg/kg, ip after 4 hr by rotarod test; assay type: toxicity, organism-based; set-up: dose 300 mg/kg, route intraperitoneal; conditions: in vivo
[4] = tested on: Mus musculus; assay: Anticonvulsant activity in Mus musculus (mouse) assessed as protection against subcutaneous pentylene tetrazole-induced seizure at 300 mg/kg, ip after 4 hr; assay type: functional, organism-based; set-up: dose 300 mg/kg
[5] = tested on: Mus musculus; assay: Neurotoxicity in Mus musculus (mouse) assessed as minimal motor impairment at 300 mg/kg, ip after 0.5 hr by rotarod test; assay type: toxicity, organism-based; set-up: dose 300 mg/kg, route intraperitoneal; conditions: in vivo
[6] = tested on: Mus musculus; assay: Anticonvulsant activity in Mus musculus (mouse) assessed as protection against maximal electroshock-induced seizure at 300 mg/kg, ip after 0.5 hr; assay type: functional, organism-based; set-up: dose 300 mg/kg
[7] = tested on: Mus musculus; assay: Neurotoxicity in ip dosed Mus musculus (mouse) assessed as minimal motor impairment after 4 hr by rotarod test; assay type: toxicity, organism-based; conditions: in vivo
[8] = tested on: Mus musculus; assay: Anticonvulsant activity in ip dosed Mus musculus (mouse) assessed as protection against subcutaneous pentylene tetrazole-induced seizure after 4 hr; assay type: functional; conditions: read-out: MED
[9] = tested on: Mus musculus; assay: Anticonvulsant activity in ip dosed Mus musculus (mouse) assessed as protection against maximal electroshock-induced seizure after 0.5 hr; assay type: functional; conditions: read-out: MED
[10] = tested on: Mus musculus; assay: Anticonvulsant activity in ip dosed Mus musculus (mouse) assessed as protection against subcutaneous pentylene tetrazole-induced seizure after 0.5 hr; assay type: functional; conditions: read-out: MED
[11] = tested on: Mus musculus; assay: Neurotoxicity in Mus musculus (mouse) assessed as increase in immobility time at 30 mg/kg, ip administered 30 min before test measured for 5 min by forced swimming test; assay type: toxicity, organism-based; set-up: dose 30 mg/kg, route intraperitoneal; conditions: in vivo
[12] = tested on: Mus musculus; assay: Neurotoxicity in ip dosed Mus musculus (mouse) assessed as minimal motor impairment after 0.5 hr by rotarod test; assay type: toxicity, organism-based; conditions: in vivo

Row | Compound | minimal effective dose [1] | Activity [2] | Activity [3] | Activity [4] | Activity [5] | Activity [6] | MTC [7] | minimal effective dose [8] | minimal effective dose [9] | minimal effective dose [10] | Activity [11] | MTC [12]
1 | COc1ccccc1C1C(Cl)C(=O)N1NC(=O)c1ccncc1 (stereo not given) | 300 mg/kg | inactive | Non-toxic | inactive | Non-toxic | inactive | – | – | – | – | – | –
2 | O=C(NN1C(=O)C(Cl)C1c1ccccc1O)c1ccncc1 (stereo not given) | 300 mg/kg | inactive | Non-toxic | inactive | Non-toxic | inactive | – | – | – | – | – | –
3 | O=C(NN1C(=O)C(Cl)C1c1ccc(O)cc1)c1ccncc1 (stereo not given) | 100 mg/kg | inactive | – | – | Non-toxic | inactive | 300 mg/kg | 300 mg/kg | – | – | – | –
4 | O=C(NN1C(=O)C(Cl)C1c1ccccc1[N+](=O)[O-])c1ccncc1 (stereo not given) | 300 mg/kg | inactive | Non-toxic | – | Non-toxic | inactive | – | 300 mg/kg | – | – | – | –
5 | O=C(NN1C(=O)C(Cl)C1c1ccccc1)c1ccncc1 (stereo not given) | 100 mg/kg | – | Non-toxic | – | Non-toxic | – | – | 100 mg/kg | 100 mg/kg | 100 mg/kg | 11.5% | –
6 | Cc1ccc(C2C(Cl)C(=O)N2NC(=O)c2ccncc2)cc1 (stereo not given) | 30 mg/kg | – | Non-toxic | – | Non-toxic | – | – | 30 mg/kg | 30 mg/kg | 100 mg/kg | 21.66% | –
7 | CN(C)c1ccc(C2C(Cl)C(=O)N2NC(=O)c2ccncc2)cc1 (stereo not given) | 100 mg/kg | inactive | Non-toxic | – | Non-toxic | – | – | 100 mg/kg | 100 mg/kg | – | 49.83% | –
8 | COc1cc(C2C(Cl)C(=O)N2NC(=O)c2ccncc2)ccc1O (stereo not given) | 100 mg/kg | inactive | Non-toxic | – | Non-toxic | – | – | 300 mg/kg | 300 mg/kg | – | – | –
9 | COc1ccc(C2C(Cl)C(=O)N2NC(=O)c2ccncc2)cc1OC (stereo not given) | 100 mg/kg | – | Non-toxic | – | Non-toxic | – | – | 100 mg/kg | 100 mg/kg | 100 mg/kg | 33.83% | –
10 | NC(=O)N1c2ccccc2C=Cc2ccccc21 [CARBAMAZEPINE] | 100 mg/kg | – | – | – | Non-toxic | – | 30 mg/kg | 300 mg/kg | 30 mg/kg | 100 mg/kg | 30.66% | –
11 | O=C1NC(=O)C(c2ccccc2)(c2ccccc2)N1 [PHENYTOIN] | 30 mg/kg | inactive | – | inactive | – | – | 100 mg/kg | – | 30 mg/kg | – | – | 100 mg/kg
12 | O=C(NN1C(=O)C(Cl)C1c1ccc([N+](=O)[O-])cc1)c1ccncc1 (stereo not given) | 100 mg/kg | – | – | – | Non-toxic | inactive | 300 mg/kg | 100 mg/kg | – | 300 mg/kg | – | –
13 | O=C(NN1C(=O)C(Cl)C1c1ccccc1Cl)c1ccncc1 (stereo not given) | 300 mg/kg | inactive | Non-toxic | inactive | Non-toxic | inactive | – | – | – | – | – | –
14 | O=C(NN1C(=O)C(Cl)C1c1ccc(Cl)cc1)c1ccncc1 (stereo not given) | 100 mg/kg | – | Non-toxic | – | Non-toxic | – | – | 100 mg/kg | 300 mg/kg | 100 mg/kg | 54.54% | –
